The source of these data is ChEMBL document CHEMBL1147460, “Syntheses and SAR studies of 4-(heteroarylpiperdin-1-yl-methyl)-pyrrolidin-1-yl-acetic acid antagonists of the human CCR5 chemokine receptor” (Bioorg Med Chem Lett, 2004).

The subject of data set [1] is HeLa. The data set can be described thus: Anti viral activity was determined in anti HIV-1 infectivity assay in HeLa Magi cells. The settings on record: Homo sapiens. The data set is classed as functional, cell-based.
For data set [2], the target named is T1, C-C chemokine receptor type 5 (Homo sapiens, UniProt P51681). The data set can be described thus: Inhibition of human C-C chemokine receptor type 5 assayed using [125I]-MIP-1 alpha as radioligand.
The subject of data set [3] is HeLa. The data set can be described thus: Anti viral activity in anti HIV-1 infectivity assay in HeLa Magi cells. The data set is classed as functional. The settings on record: Homo sapiens.
The nature of data set [4]: Plasma clearance in rat. The data set is classed as ADME, organism-based. The settings on record: read-out: Clp.
The nature of data set [5]: Half life in rat. Format: ADME, organism-based. As to conditions: in vivo.
Data set [6] in a line: Volume of distribution in rat. Format: ADME, organism-based. The settings on record: in vivo, read-out: Vdss.
Data set [7] can be described thus: Oral bioavailability in rat. Format: ADME, organism-based. As to conditions: in vivo.
Data set [8] addresses T1, C-C chemokine receptor type 5. The data set can be described thus: Inhibitory concentration against C-C chemokine receptor type 5 using [125I]-MIP-1 alpha as radioligand.

T1 sequence (P51681 whole entry): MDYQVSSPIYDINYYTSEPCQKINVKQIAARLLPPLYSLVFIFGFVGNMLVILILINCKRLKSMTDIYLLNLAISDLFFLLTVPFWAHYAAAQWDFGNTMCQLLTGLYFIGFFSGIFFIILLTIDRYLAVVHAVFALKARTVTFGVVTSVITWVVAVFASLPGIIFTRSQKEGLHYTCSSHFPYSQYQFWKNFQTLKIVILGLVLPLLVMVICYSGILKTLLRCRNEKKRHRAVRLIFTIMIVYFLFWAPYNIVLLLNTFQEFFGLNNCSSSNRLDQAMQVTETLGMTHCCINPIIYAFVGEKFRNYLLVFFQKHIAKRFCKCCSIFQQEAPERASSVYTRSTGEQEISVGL

A word on the IC50: it is the midpoint of a concentration-inhibition curve. Low readings indicate inhibition by little substance, high ones a need for much substance. For `CC(C)[C@H](C(=O)O)N1C[C@H](CN2CCC(c3cnc(Cc4ccccc4)[nH]3)CC2)[C@@H](c2ccccc2)C1`, the concentration for half-maximal inhibition (IC50) with HeLa [1] worked out at 300 nM; in data set [2], 7 nM.

Compound `O=C(O)[C@@H](C1CCCCC1)N1C[C@H](CN2CCC(c3nocc3-c3ccccc3)CC2)[C@@H](c2ccccc2)C1` registered an IC50 in data set [2] of 27 nM. This lies in the double-digit nanomolar range.

As a reminder, the IC90 is the point of the concentration-response curve where the effect stands at 90%. As for `O=C(O)[C@@H](C1CCCCC1)N1C[C@H](CN2CCC(c3ncc(Cc4ccccc4)o3)CC2)[C@@H](c2ccccc2)C1`, the IC90 with HeLa [3] came out at 100 nM. In addition, the IC50 in data set [2] was found to be 1.5 nM.

`O=C(O)C(CC1CCC1)N1CC(c2ccccc2)[C@@H](CN2CCC(c3cnc(Cc4ccccc4)s3)CC2)C1` (some centres undefined): the IC50 was determined as 0.13 nM in the data set with HeLa [1] and 0.23 nM in data set [2].

For `O=C(O)C(CC1CC1)N1CC(c2ccccc2)[C@@H](CN2CCC(c3cnc(Cc4ccccc4)s3)CC2)C1` (some centres undefined), the IC50 was 0.13 nM in the data set with HeLa [1] and 0.23 nM in data set [2].

As for `O=C(O)[C@@H](CC1CCC1)N1C[C@H](CN2CCC(c3cnc(Cc4ccccc4)o3)CC2)[C@@H](c2ccccc2)C1`, the IC50 with HeLa [1] was determined as 3.7 nM; in data set [2], 0.34 nM.

In the case of `O=C(O)[C@@H](CC1CC1)N1C[C@H](CN2CCC(c3cnc(Cc4ccccc4)o3)CC2)[C@@H](c2ccccc2)C1`, the IC50 in the data set on HeLa [1] is 3.7 nM; in data set [2] it was 1.6 nM.

Turning to `O=C(O)[C@@H](C1CCCCC1)N1C[C@H](CN2CCC(c3ncc(Cc4ccccc4)s3)CC2)[C@@H](c2ccccc2)C1`, in the data set on HeLa [3], the concentration for an effect of 90% (IC90) turned out to be 33 nM. The IC50 in data set [2] was found to be 2 nM.

In the data set with HeLa [3], `O=C(O)[C@@H](C1CCCCC1)N1C[C@H](CN2CCC(c3csc(-c4ccccc4)n3)CC2)[C@@H](c2ccccc2)C1` gave an IC90 of 100 nM. For the same compound, the IC50 in data set [2] amounted to 1.1 nM.

On to `CCc1nc(Cc2ccccc2)sc1C1CCN(C[C@H]2CN([C@H](CC3CCC3)C(=O)O)C[C@@H]2c2cccc(F)c2)CC1`, for which the IC50 in the data set with HeLa [1] is 0.13 nM; in data set [2] it was 0.76 nM.

Take `O=C(O)[C@@H](C1CCCCC1)N1C[C@H](CN2CCC(c3cnc(Cc4ccccc4)[nH]3)CC2)[C@@H](c2ccccc2)C1`: the IC50 in data set [2] was found to be 0.67 nM.

Regarding `CC(C)[C@H](C(=O)O)N1C[C@H](CN2CCC(c3cnc(Cc4ccccc4)s3)CC2)[C@@H](c2ccccc2)C1`, the concentration for half-maximal inhibition (IC50) with HeLa [1] came out at 11 nM; in data set [2] it was 0.51 nM.

Take `O=C(O)[C@@H](C1CCCCC1)N1C[C@H](CN2CCC(c3cnc(Cc4ccccc4)s3)CC2)[C@@H](c2ccccc2)C1`: in the data set on HeLa [3], the IC90 is 0.14 nM. The compound also gave an IC50 in data set [2] of 0.29 nM.

As for `CCc1nc(Cc2ccccc2)[nH]c1C1CCN(C[C@H]2CN([C@H](CC3CCC3)C(=O)O)C[C@@H]2c2cccc(F)c2)CC1`, the IC50 with HeLa [1] amounted to 0.4 nM; in data set [2], 0.57 nM.

Usually half-life stands for how long it takes for the measured level to halve. A low value points to rapid decline. In general, bioavailability refers to the share of a dose that reaches the circulation, judged against a reference dose that is usually intravenous. Higher therefore signals much systemic uptake. On to `CCc1nc(Cc2ccccc2)sc1C1CCN(C[C@H]2CN([C@@H](C(=O)O)C(C)C)C[C@@H]2c2cccc(F)c2)CC1`, for which the clearance in data set [4] stood at 1.15 mL/min/kg. The IC50 in the data set on HeLa [1] was 0.13 nM; in data set [2] it was 1 nM. This compound showed a half-life in data set [5] of 50.4 min. For the same compound, the Vd in data set [6] stood at 0.54 L/kg. The same compound gave a bioavailability in data set [7] of 19%.

Consider `CCc1nc(Cc2ccccc2)oc1C1CCN(C[C@H]2CN([C@H](CC3CCC3)C(=O)O)C[C@@H]2c2cccc(F)c2)CC1`, for which the IC50 in the data set with HeLa [1] stood at 0.13 nM; in data set [2] it was 0.89 nM.

In the data set on HeLa [3], `O=C(O)[C@@H](C1CCCCC1)N1C[C@H](CN2CCC(c3cnc(-c4ccccc4)[nH]3)CC2)[C@@H](c2ccccc2)C1` displayed an IC90 of 33 nM. The IC50 in data set [2] came to 6.2 nM.

With `O=C(O)[C@@H](C1CCCCC1)N1C[C@H](CN2CCC(c3nc(-c4ccccc4)c[nH]3)CC2)[C@@H](c2ccccc2)C1`, the IC50 in data set [2] was found to be 23 nM.

In turn, `O=C(O)[C@@H](C1CCCCC1)N1C[C@H](CN2CCC(c3csc(Cc4ccccc4)n3)CC2)[C@@H](c2ccccc2)C1` returned an IC90 with HeLa [3] of 33 nM. The IC50 in data set [2] was 1.3 nM.

The compound `O=C(O)[C@@H](C1CCCCC1)N1C[C@H](CN2CCC(c3cc(-c4ccccc4)no3)CC2)[C@@H](c2ccccc2)C1` displayed an IC50 in data set [8] of 18.1 nM.

As to `O=C(O)[C@@H](CC1CCC1)N1C[C@H](CN2CCC(c3[nH]c(Cc4ccccc4)nc3Cl)CC2)[C@@H](c2cccc(F)c2)C1`, the IC50 in the data set on HeLa [1] stood at 0.13 nM; in data set [2], 0.6 nM.

With `O=C(O)[C@@H](CC1CC1)N1C[C@H](CN2CCC(c3[nH]c(Cc4ccccc4)nc3Cl)CC2)[C@@H](c2cccc(F)c2)C1`, in data set [4], the clearance turned out to be 60.5 mL/min/kg. Also, the values for the IC50 (with HeLa [1]; in data set [2]) were 0.4 nM and 0.7 nM, respectively. In data set [5], this compound had a half-life of 31.8 min. Besides, the Vd in data set [6] turned out to be 1.05 L/kg. The bioavailability in data set [7] turned out to be 1.1%.

Regarding `CC(C)[C@H](C(=O)O)N1C[C@H](CN2CCC(c3cnc(Cc4ccccc4)o3)CC2)[C@@H](c2ccccc2)C1`, the concentration for half-maximal inhibition (IC50) with HeLa [1] was 300 nM; in data set [2] it was 3.8 nM.

Regarding `O=C(O)[C@@H](CC1CC1)N1C[C@H](CN2CCC(c3c[nH]c(Cc4ccccc4)n3)CC2)[C@@H](c2ccccc2)C1`, the figures for the IC50 (in the data set with HeLa [1]; in data set [2]) were 100 nM and 0.73 nM, respectively.

As to `O=C(O)[C@@H](CC1CCC1)N1C[C@H](CN2CCC(c3c[nH]c(Cc4ccccc4)n3)CC2)[C@@H](c2ccccc2)C1`, the results for the IC50 (in the data set with HeLa [1]; in data set [2]) were 100 nM and 0.38 nM, respectively.
